# In patent US11453642B2, “Oxygenated amino- or ammonium-containing sulfonic acid, phosphonic acid and carboxylic acid derivatives and their medical use” (GRI BIO, INC., priority 2011, dated 2022):
# Read-outs that look alike come from different tables or passages of the source.
# System: DTH response in mice
# Type: in vivo
# Settings: DTH; for Inhibition of mouse ear swelling: 24 h after challenge; for inhibition relative to that of the high dose of dexamethasone: versus dexamethasone 1 mg/kg
# Method: The anti-inflammatory and anti-allergic effects of compounds 1a and 1c were assessed in a mouse model of skin delayed-type hypersensitivity (DTH) reactions and compared to a vehicle control and to the reference drug dexamethasone. DTH reactions are antigen-specific cell-mediated immune responses, driven primarily by T helper type 1 (Th1) cells, similar to the tuberculin immunization response. The immune reaction induced by an ovalbumin challenge to animals previously sensitized with ovalbumin in Complete Freund's Adjuvant, is characterized by swelling (edema) at the site of challenge, e.g. the mouse ear. Dexamethasone, an anti-inflammatory steroid, reduces cell-mediated immune responses and was employed to validate the responsiveness of the assay to pharmacological treatment.
# Female BALB/cJW mice were bred at the University of Lodz, Lodz, Poland and housed in groups of 8 in makrolon cages with a 12 h light-dark cycle. Mice were given free access to food (Agropol S.j., Motycz, Poland) and water.
# Sensitization: The protein antigen, ovalbumin, was reconstituted in PBS at 4 mg/ml. An ovalbumin-CFA emulsion was prepared by mixing the protein solution with the CFA suspension at a ratio of 1:1, using two Luer-lock syringes. The emulsion was tested by putting a drop of emulsion onto PBS; if the emulsion remained as a tight droplet on the PBS, the emulsion was deemed ready. Mice were sensitized by subcutaneously injecting 25 μL of emulsion into each side of the tail (100 μg ovalbumin per mouse).
# Challenge: On the sixth day after sensitization, DTH was elicited by challenging animals subcutaneously (gauge 30 needle, B. Braun Melsungen, Melsungen, Germany) in the left ears with 10 μL of a 1% suspension of heat-aggregated ovalbumin (HOVA) (100 μg ovalbumin per mouse). The right ears were administered subcutaneously with PBS and served to determine the individual differences in ear thicknesses. HOVA was prepared by heating a 5% solution of ovalbumin in saline for 1 h at 80° C. with occasional swirling. After cooling to room temperature and centrifugation (400 g. 10 min at 4° C.), the pellet was washed twice with saline, resuspended at 2% in PBS and aliquots stored at −30° C. Before injection, HOVA was diluted with an equal volume of PBS and sonicated. Ear thickness was measured with a precise spring-loaded caliper (Art. No. 7309, Mitutoyo, Kawasaki, Japan) before challenge, and 24 h after challenge.
# Sensitization, challenge and ear thickness measurement were performed under anesthesia (ketamine 80 mg/kg plus xylazine 8 mg/kg, intraperitoneally).
# The anti-inflammatory effects of compounds 1a and 1c were compared to a vehicle control (0.5% methyl cellulose solution) and to the reference drug, dexamethasone. Test compounds were given at 25 or 100 mg/kg orally by gavage (Art. No. 432093, Harvard Apparatus GmbH, March-Hugstetten, Germany) 16 h and 3 h before sensitization and then twice daily with the final dose given 3 h prior to ear challenge (a total of 14 administrations). Dexamethasone was given at 0.1 or 1 mg/kg orally by gavage 3 h before sensitization and once daily with the final dose given 3 h prior to antigen challenge (a total of 7 administrations). All administrations were given in a volume of 10 ml/kg.
# To account for individual variability, the increase in right ear thickness, before and 24 h after administration of PBS, was subtracted from the HOVA-induced increase in left ear thickness. The increase in ear thickness was calculated by the difference between ear thickness before and 24 h after antigen challenge. Percent inhibition of ear swelling was calculated according to the following formula: % inhibition=100×(IETvehicle−IETcompound)/IETvehicle where IET=(ET24 hrs pc−ETpredose)HOVA-treated ears−(ET24 hrs pc−ETpredose)PBS-treated ears • (IET, increase ear thickness; ET, ear thickness; pc, post challenge)
# Mean and standard deviation (SD) were calculated from individual ear edema values. […]
# [1] = 100 mg/kg orally twice daily (14 administrations)
SMILES,Inhibition of mouse ear swelling (25 mg/kg orally twice daily (14 administrations)) [%],Inhibition of mouse ear swelling [1] [%],inhibition relative to that of the high dose of dexamethasone
"CCCCCCCCCCCCCCCCN(C)CC(O)CS(=O)(=O)O (centres unmarked) [Compound 1a, 2-hydroxy-3-(N-methylhexadecylammonio)propane-sulfonate]",49,52,up to 98%
"CCCCCCCCCCCCN(C)CC(O)CS(=O)(=O)O (centres unmarked) [Compound 1c, 2-hydroxy-3-(N-methyldodecylammonio)propanesulfonate]",,41,77%
